The values that follow come from patent US12129504B2, “Caproate-producing bacterium with multiple substrate utilization capabilities and its applications” (Jiangnan University, priority 2021, dated 2024).

Each structure is given as a SMILES string.

The conditions of data set [1]: cited from earlier work.
For data set [2], the system named is Oscillospiraceae sp. LBM10036. Kind of data set: Tolerance of the strain to toxicity of caproic acid: growth (OD600) in liquid mediums with different initial concentrations of caproic acid. Type of data set: cell-based. An excerpt:
A brewing environment of Strong aroma-type Baijiu is characterized by a low pH, and the lower the pH, the higher the content of free caproic acid in a system. Free caproic acid can cause toxicity to bacterial cells, therefore, the stronger the tolerance of bacterial cells to the toxicity of caproic acid, the more favorable it is for the survival of the bacterial cells in a system. The growth of the Oscillospiraceae sp. LBM10036 was tracked and measured by designing liquid mediums with different initial concentrations of caproic acid.
The medium contains (calculated in g/L): glucose 20.0, yeast powder 10.0, peptone 10.0, dipotassium hydrogen phosphate 1.0, potassium dihydrogen phosphate 0.5, ammonium sulfate 2.0, magnesium sulfate 0.1, and a cosubstrate 5.0, as well as a trace element nutrient solution 0.15-1.0 (mL/L). The cosubstrate is one or both of acetate and butyrate. The trace element nutrient solution contains (calculated in g/L): calcium chloride 10, cobalt chloride 10, zinc sulfate 10, manganese sulfate 10, and ferrous sulfate heptahydrate 15. The pH of the medium is 5.5, and the medium was sterilized at 115° C. for 30 min.
The dissolved medium was divided into 5 blue cap bottles (100 mL), each blue cap bottle containing 100 mL of medium. Before sterilization, the initial concentrations of caproic acid in the mediums were adjusted to 0 g/L, 1 g/L, 2 g/L, 3 g/L, and 4 g/L using a caproic acid standard. At this point, the initial concentrations of free caproic acid in the mediums were 0 g/L, 0.19 g/L, 0.37 g/L, 0.56 g/L, and 0.75 g/L, respectively. The mediums were sterilized at 115° C. for 30 min. After sterilization, the medium of each initial concentration gradient of caproic acid was divided into 3 parts, each part containing 30 mL in a 50 mL centrifuge tube. The residual mediums were taken out of an anaerobic incubator for re-determining the pH and initial concentrations of total caproic acid, and calculating whether the actual concentrations of free caproic acid meet the experimental design.
(1) An Oscillospiraceae sp. LBM10036 frozen glycerol tube was taken out from a −80° C. refrigerator, activated for cultivation for the first generation at 37° C. in the modified Clostridium growth medium prepared in (1) step 1 until the OD600 was 1.5-2.0 to obtain a first generation seed solution, and then the first generation seed solution was transferred to a fresh modified Clostridium growth medium at an inoculum concentration of 5% (v/v) and activated for the second generation cultivation at 37° C. for 12-18 h until the OD600 was 1.5-2.0 to obtain a second generation seed solution.
(2) 100 mL of the modified Clostridium growth medium described in step (1) was inoculated with the second generation seed solution obtained in step (1) at an inoculum concentration of 5% (v/v) and cultivated until the OD value was 1.5-2.0, to obtain a culture solution.
(3) The mediums with different initial concentration gradients of caproic acid prepared in (2) of step 1 were inoculated with the prepared culture solution at an inoculum concentration of 5% (v/v). The medium of each initial concentration gradient of caproic acid had 3 replicates, and sampled from 0 to 72 h at an interval of 12 h. The maximum specific growth rates under different initial concentration gradients of caproic acid were plotted (as shown in FIG. 4).

One may read the pKa as the negative logarithm of the acid dissociation constant. On to `CCCCCC(=O)O` [caproic acid], for which the pKa in data set [1] is 4.86. The “growth of Oscillospiraceae sp.” value in data set [2] (caproic acid 4 g/L (free caproic acid 0.75 g/L)) is on record as “significantly inhibited”. Besides, the “concentration of free caproic acid at the maximum tolerable initial concentration” value in data set [2] (free caproic acid calculated from pH 5.5 and pKa 4.86) was 0.56 g/L. For the same molecule, the OD600 was found to be 0.26 ± 0.00 in data set [2] (initial caproic acid 1 g/L, 0 h, medium pH 5.5); 0.53 ± 0.02 in data set [2] (initial caproic acid 1 g/L, 12 h, medium pH 5.5); 1.96 ± 0.17 in data set [2] (initial caproic acid 1 g/L, 24 h, medium pH 5.5); 2.39 ± 0.20 in data set [2] (initial caproic acid 1 g/L, 48 h, medium pH 5.5); 2.25 ± 0.32 in data set [2] (initial caproic acid 1 g/L, 72 h, medium pH 5.5); 0.27 ± 0.01 in data set [2] (initial caproic acid 2 g/L, 0 h, medium pH 5.5). For the same molecule, the OD600 in data set [2] (initial caproic acid 2 g/L, 12 h, medium pH 5.5) amounted to 0.30 ± 0.02; in data set [2] (initial caproic acid 2 g/L, 24 h, medium pH 5.5), 1.06 ± 0.37; in data set [2] (initial caproic acid 2 g/L, 48 h, medium pH 5.5) it was 2.00 ± 0.10; in data set [2] (initial caproic acid 2 g/L, 72 h, medium pH 5.5) it was 1.72 ± 0.17; in data set [2] (initial caproic acid 3 g/L, 0 h, medium pH 5.5) it was 0.26 ± 0.01; in data set [2] (initial caproic acid 3 g/L, 12 h, medium pH 5.5) it was 0.69 ± 0.06. The OD600 in data set [2] (initial caproic acid 3 g/L, 24 h, medium pH 5.5) is listed as 0.88 ± 0.07; in data set [2] (initial caproic acid 3 g/L, 48 h, medium pH 5.5) it was 1.46 ± 0.07; in data set [2] (initial caproic acid 3 g/L, 72 h, medium pH 5.5), 1.44 ± 0.05; in data set [2] (initial caproic acid 4 g/L, 0 h, medium pH 5.5) it was 0.23 ± 0.01; in data set [2] (initial caproic acid 4 g/L, 12 h, medium pH 5.5), 0.22 ± 0.01; in data set [2] (initial caproic acid 4 g/L, 24 h, medium pH 5.5), 0.20 ± 0.01. Further, the OD600 is 0.21 ± 0.04 in data set [2] (initial caproic acid 4 g/L, 48 h, medium pH 5.5) and 0.20 ± 0.02 in data set [2] (initial caproic acid 4 g/L, 72 h, medium pH 5.5). For the same molecule, the “maximum tolerable initial concentration of caproic acid” value in data set [2] (total caproic acid, medium pH 5.5) is recorded as 3 g/L.
